In patent US20050101595A1, “N-containing cycloalkyl-substituted amino-thiazole derivatives and pharmaceutical compositions for inhibiting cell proliferation and methods for their use” (PFIZER INC., priority 2003, published 2005):
Structures can show the parent of a compound that is named as a salt. Where two headings read alike, the source gives them in different places.

Assays:
[1] = biological target: human CDK4 and genetically truncated (1-264) cyclin D3 (Homo sapiens, UniProt P11802); test: Inhibition of CDK4/Cyclin D Retinoblastoma Kinase Activity; format: biochemical; conditions: apparent Ki, CDK4/truncated cyclin D3, Rb fragment substrate, 25 μM ATP
human CDK4 and genetically truncated (1-264) cyclin D3, sequence (P11802 whole entry, the tested form may be a part): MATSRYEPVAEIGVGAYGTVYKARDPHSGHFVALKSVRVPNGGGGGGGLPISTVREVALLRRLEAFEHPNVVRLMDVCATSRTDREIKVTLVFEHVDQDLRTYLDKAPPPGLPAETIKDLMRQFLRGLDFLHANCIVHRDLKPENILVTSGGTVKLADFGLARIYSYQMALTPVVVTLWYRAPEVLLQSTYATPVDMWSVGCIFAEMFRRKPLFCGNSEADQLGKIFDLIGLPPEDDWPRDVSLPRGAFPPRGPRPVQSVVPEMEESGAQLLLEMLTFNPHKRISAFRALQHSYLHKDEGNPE
human CDK4 and genetically truncated (1-264) cyclin D3, sequence (P30281 1-264 partner): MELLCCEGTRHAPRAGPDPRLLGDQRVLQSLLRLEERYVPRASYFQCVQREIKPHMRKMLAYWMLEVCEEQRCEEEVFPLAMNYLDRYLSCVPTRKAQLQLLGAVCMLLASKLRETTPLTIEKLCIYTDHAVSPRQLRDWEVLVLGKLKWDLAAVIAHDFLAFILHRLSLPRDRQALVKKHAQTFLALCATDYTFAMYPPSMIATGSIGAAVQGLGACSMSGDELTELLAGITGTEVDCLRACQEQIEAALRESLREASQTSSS
Outline: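 The enzyme complex (5 nM), expressed in co-infected insect cells, was incubated with recombinant Rb fragment, 25 μM radiolabelled ATP and 2% DMSO at 30 °C. Reactions were stopped with EDTA after 20 minutes, or 60 minutes for tight-binding inhibitors. Apparent Ki values came from competitive inhibition fits.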

[2] = test system: HCT-116 cell line; test: Inhibition of cell growth, tetrazolium salt (MTT) assay; format: cell-based; conditions: Homo sapiens, HCT-116, 120 h, MTT, three to five days, read-out: HCT-116 IC50
Outline: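 First, cells were seeded in McCoy's 5A medium and held 4 h. Next, inhibitor concentrations in 0.5% (v/v) DMSO were applied for three to five days at 37° C, 5% CO2. Finally, after 4 h with 0.2 mg/mL MTT and medium removal, solubilized formazan was measured at 540 nm.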

[3] = biological target: CDK2/Cyclin A (Homo sapiens, UniProt P24941); test: Inhibition of CDK2/Cyclin A Retinoblastoma Kinase Activity; format: biochemical; conditions: apparent Ki, CDK2/proteolyzed cyclin A, Rb fragment substrate, 25 μM ATP
Outline: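 CDK2 (10 or 19 nM), insect-cell expressed, gel-filtration purified with truncated cyclin A; Rb fragment substrate; 25 μM ATP; 10 mM HEPES pH 7.4, 10 mM MgCl2; 30° C, 60 or 75 min; EDTA stop; phosphocellulose/nitrocellulose capture, phosphorimager. % inhibition vs DMSO control, no-enzyme background subtracted.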

SMILES	Ki [1]	IC50 ([2]; first HCT-116 column (c4))	IC50 ([2]; second HCT-116 column (c5))	Ki [3]
Nc1nc(NC2CCN(S(=O)(=O)c3ccc(CCCN4CCCCC4)nc3)CC2)sc1C(=O)c1c(F)cccc1F [Example I14, 1-(4-Amino-2-{1-[6-(3-piperidin-1-yl-propyl)-pyridine-3-sulfonyl]-piperidin-4-ylamino}-thiazol-5-yl)-1-(2,6-difluoro-phenyl)-methanone Trifluoroacetic Acid Salt]	0.57 nM	140 nM	300 nM	1.2 nM
CN1CCN=C1c1ccc(S(=O)(=O)N2CCC(Nc3nc(N)c(C(=O)c4c(F)cccc4F)s3)CC2)cc1 [Example J1, 1-[4-Amino-2-{1-[4-(1-methyl-4,5-dihydro-1H-imidazol-2-yl)-benzenesulfonyl]-piperidin-4-ylamino}-thiazol-5-yl)-1-(2,6-difluoro-phenyl)-methanone]	0.63 nM	1200 nM	5000 nM	< 1 nM
CC1(C)CN=C(c2ccc(S(=O)(=O)N3CCC(Nc4nc(N)c(C(=O)c5c(F)cccc5F)s4)CC3)cc2)N1 [Example J2, 1-(4-Amino-2-{1-[4-(5,5-dimethyl-4,5-dihydro-1H-imidazol-2-yl)-benzenesulfonyl]-piperidin-4-ylamino}-thiazol-5-yl)-1-(2,6-difluoro-phenyl)-methanone]	0.18 nM	500 nM	1800 nM	< 1 nM
N=C(N)c1ccc(S(=O)(=O)N2CCC(Nc3nc(N)c(C(=O)c4c(F)cccc4F)s3)CC2)cc1 [Example J3, 4-(4-{4-Amino-5-[1-(2,6-difluoro-phenyl)-methanoyl]-thiazol-2-ylamino}-piperidine-1-sulfonyl)-benzamidine]	0.25 nM	> 5000 nM	> 5000 nM	< 1 nM
Nc1nc(NC2CCN(S(=O)(=O)c3ccc(-c4nnn[nH]4)cc3)CC2)sc1C(=O)c1c(F)cccc1F [Example J4, 1-(4-Amino-2-{1-[4-(1H-tetrazol-5-yl)-benzenesulfonyl]-piperidin-4ylamino}-thiazol-5-yl)-1-(2,6-difluoro-phenyl)-methanone Trifluoroacetic Acid Salt]	1.7 nM	> 5000 nM	> 5000 nM	< 1 nM
Nc1nc(NC2CCN(S(=O)(=O)c3ccc(C4=NCCO4)cc3)CC2)sc1C(=O)c1c(F)cccc1F [Example J5, 1-(4-Amino-2-{1-[4-(4,5-dihydro-oxazol-2-yl)-benzenesulfonyl]-piperidin-4-ylamino}-thiazol-5-yl)-1-(2,6-difluoro-phenyl)-methanone]	3.9 nM	210 nM	480 nM	2.8 nM
Nc1nc(NC2CCN(S(=O)(=O)c3ccc(CN4CCCC4)cc3)CC2)sc1C(=O)c1c(F)cccc1F [Example J6, 1-{4-Amino-2-[1-(4-pyrrolidin-1-ylmethyl-benzenesulfonyl)-piperidin-4-ylamino]-thiazol-5-yl}-1-(2,6-difluoro-phenyl)-methanone Hydrochloride]	0.58 nM	390 nM	2000 nM	< 1 nM
CN1CCN(Cc2ccc(S(=O)(=O)N3CCC(Nc4nc(N)c(C(=O)c5c(F)cccc5F)s4)CC3)cc2)CC1 [Example J7]	0.78 nM	130 nM	300 nM	1.9 nM
Nc1nc(NC2CCN(S(=O)(=O)c3ccc(CN4CCOCC4)cc3)CC2)sc1C(=O)c1c(F)cccc1F [Example J8, 1-{4-Amino-2-[1-(4-morpholin4-ylmethyl-benzenzsulfonyl)-piperidin-4-ylamino]-thiazol-5-yl}-1-(2,6-difluoro-phenyl)-methanone Hydrochloride Salt]	1.2 nM	98 nM	400 nM	1.3 nM
CN(C)CCN(C)Cc1ccc(S(=O)(=O)N2CCC(Nc3nc(N)c(C(=O)c4c(F)cccc4F)s3)CC2)cc1 [Example J9, 1-{4-Amino-2-[1-(4-{[(2-dimethylamino-ethyl)-methyl-amino]-methyl}-benzenesulfonyl)-piperidin-4-ylamino]-thiazol-5-yl}-1-(2,6-difluoro-phenyl)-methanone Hydrochloride Salt.]	0.85 nM	130 nM	320 nM	2.4 nM
C[C@@H]1CN(Cc2ccc(S(=O)(=O)N3CCC(Nc4nc(N)c(C(=O)c5c(F)cccc5F)s4)CC3)cc2)C[C@H](C)N1 [Example J10, 1-{4-Amino-2-{1-[4-(3,5-dimethyl-piperazin-1-ylmethyl)-benzenesulfonyl]-piperidin-4-ylamino}-thiazol-5-yl)-1-(2,6-difluoro-phenyl)-methanone Hydrochloride Salt.]	0.39 nM	160 nM	2900 nM	1.7 nM

Now from value to compound:

Ki [1]	IC50 ([2]; first HCT-116 column (c4))	IC50 ([2]; second HCT-116 column (c5))	Ki [3]	SMILES
2 nM	> 5000 nM	> 5000 nM	7.8 nM	C[C@@H]1CN(CCCS(=O)(=O)N2CCC(Nc3nc(N)c(C(=O)c4c(F)cccc4F)s3)CC2)C[C@H](C)N1 [Example K1, 1-(4-Amino-2-{1-[3-(3,5-cis-dimethylpiperazin-1-yl)-propane-1-sulfonyl]-piperidin-4-ylamino}-thiazol-5-yl)-1-(2,6-difluoro-phenyl)-methanone]
4.7 nM	2300 nM	> 5000 nM	6.3 nM	Nc1nc(NC2CCN(S(=O)(=O)CCCn3ccnc3)CC2)sc1C(=O)c1c(F)cccc1F [Example K2]
1.3 nM	410 nM	1500 nM	1.8 nM	CN(C)CCCS(=O)(=O)N1CCC(Nc2nc(N)c(C(=O)c3c(F)cccc3F)s2)CC1 [Example K4, 1-(4-Amino-2-{1-[3-(dimethylamino)propane-1-sulfonyl]-piperidin-4-ylamino}-thiazol-5-yl)-1-(2,6-difluoro-phenyl)-methanone.]
1.5 nM	140 nM	580 nM	1 nM	Nc1nc(NC2CCN(S(=O)(=O)CCCN3CCc4ccccc4C3)CC2)sc1C(=O)c1c(F)cccc1F [Example K5, 1-(4-Amino-2-{1-[3-(3,4-dihydro-1H-isoquinolin-2-yl)propane-1-sulfonyl]-piperidin-4-ylamino}-thiazol-5-yl)-1-(2,6-difluoro-phenyl)-methanone.]
1.5 nM	180 nM	800 nM	5.8 nM	CCCN(CCCS(=O)(=O)N1CCC(Nc2nc(N)c(C(=O)c3c(F)cccc3F)s2)CC1)CC1CC1 [Example K6, 1-(4-Amino-2-{1-[3-(cyclopropylmethyl-propyl-amino)propane-1-sulfonyl]-piperidin-4-ylamino}-thiazol-5-yl)-1-(2,6-difluoro-phenyl)-methanone.]
2.9 nM	210 nM	1700 nM	2 nM	Nc1nc(NC2CCN(S(=O)(=O)CCCN3CCCCC3)CC2)sc1C(=O)c1c(F)cccc1F [Example K7, 1-(4-Amino-2-{1-[3-(piperidin-1-yl)propane-1-sulfonyl]-piperidin-4-ylamino}-thiazol-5-yl)-1-(2,6-difluoro-phenyl)-methanone.]
2.7 nM	310 nM	2900 nM	1.8 nM	Nc1nc(NC2CCN(S(=O)(=O)CCCN3CCCC3)CC2)sc1C(=O)c1c(F)cccc1F [Example K8, 1-(4-Amino-2-{1-[3-(pyrrolidin-1-yl)propane-1 sulfonyl]-piperidin-4-ylamino}-thiazol-5-yl)-1-(2,6-difluoro-phenyl)-methanone.]
1.6 nM	90 nM	930 nM	< 1.3 nM	Nc1nc(NC2CCN(S(=O)(=O)CCCN3CC=CC3)CC2)sc1C(=O)c1c(F)cccc1F [Example K9, 1-(4-Amino-2-{1-[3-(2,5-dihydropyrrol-1-yl)propane-1-sulfonyl]-piperidin-4-ylamino}-thiazol-5-yl)-1-(2,6-difluoro-phenyl)-methanone.]
1.8 nM	130 nM	1300 nM	2.9 nM	Nc1nc(NC2CCN(S(=O)(=O)CCCN3CC=CCC3)CC2)sc1C(=O)c1c(F)cccc1F [Example K11, 1-(4-Amino-2-{1-[3-(3,6-dihydro-2H-pyridin-1-yl)propane-1-sulfonyl]-piperidin-4-ylamino}-thiazol-5-yl)-1-(2,6-difluoro-phenyl)-methanone.]
4.7 nM	600 nM	5000 nM	6.7 nM	Nc1nc(NC2CCN(S(=O)(=O)CCCN3CCOCC3)CC2)sc1C(=O)c1c(F)cccc1F [Example K12, 1-(4-Amino-2-{1-[3-(morpholin-4-yl)propane-1-sulfonyl]-piperidin-4-ylamino}-thiazol-5-yl)-1-(2,6-difluoro-phenyl)-methanone.]
2.5 nM	390 nM	1300 nM	3.9 nM	Nc1nc(NC2CCN(S(=O)(=O)CCCN3CCSCC3)CC2)sc1C(=O)c1c(F)cccc1F [Example K13, 1-(4-Amino-2-{1-[3-(thiomorpholin-4-yl)propane-1-sulfonyl]-piperidin-4-ylamino}-thiazol-5-yl)-1-(2,6-difluoro-phenyl)-methanone.]
